Here are results for 1 compound from patent US7344829B2, “Methods for detecting the efficacy of anticancer treatments” (Board of Regents, the University of Texas System, priority 2000, dated 2008).

Broadly, the IC50 is the concentration at which inhibition is half-maximal.

One data set addresses T1, EGF-R-ICD (Homo sapiens, UniProt P00533).
T1 construct: EGF-R intracellular kinase domain (EGF-R-ICD) was assayed in 20 mM Tris-HCl
The experiment in a line: In vitro kinase filter binding assay, EGF-R intracellular kinase domain. Type of data set: biochemical. How it is done:
(§1) Preparation of Enzymes and Kinase Assays. In vitro enzyme assays using EGF-R (McGlynn et al. 1992a), Abl (Geissler et al. 1992), and c-Src (Geissler et al. 1990) protein tyrosine kinases were performed in 96-well plates as a filter binding assay. Briefly, EGF-R intracellular kinase domain (EGF-R-ICD) was assayed in 20 mM Tris-HCl, pH 7.5, 10 mM MnCl2, 10 μM Na3VO4, 1 mM DTT, 0.1 μCi/assay [γ-^33P]ATP, 0.4 μM ATP, 2 μ/ml poly(Glu,Tyr 4:1) (Sigma P275), 1% DMSO, and 30 ng EGF-R-ICD in a total volume of 30 μl. The His-tagged kinase domain of c-Abl was cloned and expressed in the baculovirus/Sf9 system as described previously (Bhat et al. 1997) and assayed in 20 mM Tris-HCl, pH 7.5, 10 mM MgCl2, 10 μM Na3VO4, 1 mM DTT, 0.06 μCi/assay (=30 μl ) [γ-^32P]ATP, 5 μM ATP, 30 μg/ml poly(Ala,Glu,Lys,Tyr 6:2:5:1) (Sigma P1152), 1% DMSO, and 50 ng c-Abl enzyme. Src kinase (60 μg/ml) was preactivated with 50 μM ATP for 10 min at room temperature, and kinase inhibition was measured in 20 mM Tris-HCl, pH 7.5, 10 mM MgCl2, 10 μM Na3VO4, 1 mM DTT, 0.1 μCi/assay (=30 μl ) [γ-^33P]ATP, 20 μM ATP, 25 μg/ml poly(Glu,Tyr 4:1), 1% DMSO, and 10 ng c-Src enzyme.
(§2) GST-fused kinase domains of Kdr, Flt-1, Flk, Tek, c-Met, and c-Kit were expressed in baculovirus and purified over glutathione-Sepharose. Kinase inhibition was measured by detecting the decrease in phosphorylation of poly(Glu,Tyr 4:1) essentially as previously described for EGF-R. Each kinase was incubated under optimized buffer conditions in 20 mM Tris-HCl, pH 7.5, 1–3 mM MnCl2, 3–10 mM MgCl2, 10 μM Na3VO4, 1 mM DTT, 0.2 μCi/[γ-^33P]ATP, 1–8 μM ATP, 3–8 μg/ml poly(Glu,Tyr 4:1), 1% DMSO in a total volume of 30 μl in the presence or absence of PKI166 for 10 min at ambient temperature. Reactions were terminated by adding 10 μl of 250 mM EDTA, and the reaction mixture was transferred onto an Immobilon-PVDG membrane (Millipore, Bedford, Mass.). Following a washing (0.5% H3PO4), a soaking in EtOH, and drying, filters were counted in a liquid scintillation counter. IC50 values for PKI166 were calculated by linear regression analysis of the percentage inhibition. Inhibition of Cdc2/cyclin B protein kinase (Arion et al. 1988; Partanen et al. 1991) and PKC (McGlynn et al. 1992b) was assayed as previously described.

Another data set addresses c-Src (Homo sapiens, UniProt P12931). The experiment in a line: In vitro kinase filter binding assay, c-Src. Type of data set: biochemical. How it is done:
as §1, with “The His-tagged kinase domain of c-Abl was cloned and expressed in the baculovirus/Sf9 system as described previously (Bhat et al. 1997) and assayed in 20 mM Tris-HCl, pH 7.5, 10 mM MgCl2, 10 μM Na3VO4, 1 mM DTT, 0.06 μCi/assay (=30 μl ) [γ-^32P]ATP, 5 μM ATP, 30 μg/ml poly(Ala,Glu,Lys,Tyr 6:2:5:1) (Sigma P1152), 1% DMSO, and 50 ng c-Abl enzyme.” left out
(§3) GST-fused kinase domains of Kdr, Flt-1, Flk, Tek, c-Met, and c-Kit were expressed in baculovirus and purified over glutathione-Sepharose. Kinase inhibition was measured by detecting the decrease in phosphorylation of poly(Glu,Tyr 4:1) essentially as previously described for EGF-R. Each kinase was incubated under optimized buffer conditions in 20 mM Tris-HCl, pH 7.5, 1–3 mM MnCl2, 3–10 mM MgCl2, 10 μM Na3VO4, 1 mM DTT, 0.2 μCi/[γ-^33P]ATP, 1–8 μM ATP, 3–8 μg/ml poly(Glu,Tyr 4:1), 1% DMSO in a total volume of 30 μl in the presence or absence of PKI166 for 10 min at ambient temperature. […]

The target of a further data set is T2, c-Abl (Homo sapiens, UniProt P00519).
T2 construct: The His-tagged kinase domain of c-Abl was cloned and expressed in the baculovirus/Sf9 system; His; made in house; host or cells: baculovirus/Sf9
T2 sequence (P00519 242-493 limits assumed): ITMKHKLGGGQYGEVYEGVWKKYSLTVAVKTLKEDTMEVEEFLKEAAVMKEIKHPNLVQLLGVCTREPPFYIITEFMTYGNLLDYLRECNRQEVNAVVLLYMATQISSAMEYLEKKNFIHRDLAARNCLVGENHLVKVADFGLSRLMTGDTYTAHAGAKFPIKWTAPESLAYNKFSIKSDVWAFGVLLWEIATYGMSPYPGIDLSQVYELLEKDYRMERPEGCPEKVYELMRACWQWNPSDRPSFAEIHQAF
Kind of data set: In vitro kinase filter binding assay, c-Abl kinase domain. In kind it is biochemical. As to conditions: c-Abl tyrosine kinase. How it is done: as §1, with “The His-tagged kinase domain of c-Abl was cloned and expressed in the baculovirus/Sf9 system as described previously (Bhat et al. 1997) and assayed in 20 mM Tris-HCl, pH 7.5, 10 mM MgCl2, 10 μM Na3VO4, 1 mM DTT, 0.06 μCi/assay (=30 μl ) [γ-^32P]ATP, 5 μM ATP, 30 μg/ml poly(Ala,Glu,Lys,Tyr 6:2:5:1) (Sigma P1152), 1% DMSO, and 50 ng c-Abl enzyme.” left out
as §3

The target of the next data set is T3, KDR (Homo sapiens, UniProt P35968).
T3 construct: GST-fused kinase domains of Kdr, Flt-1, Flk, Tek, c-Met, and c-Kit were expressed in baculovirus; GST; made in house
Kind of data set: GST-fused kinase domain assay, KDR. Type of data set: biochemical. As for the experimental part:
as §2

The next data set addresses T4, Flt-1 (Homo sapiens, UniProt P17948).
T4 construct: GST-fused kinase domains of Kdr, Flt-1, Flk, Tek, c-Met, and c-Kit were expressed in baculovirus; GST; made in house
T4 sequence (P17948 827-1158 limits assumed): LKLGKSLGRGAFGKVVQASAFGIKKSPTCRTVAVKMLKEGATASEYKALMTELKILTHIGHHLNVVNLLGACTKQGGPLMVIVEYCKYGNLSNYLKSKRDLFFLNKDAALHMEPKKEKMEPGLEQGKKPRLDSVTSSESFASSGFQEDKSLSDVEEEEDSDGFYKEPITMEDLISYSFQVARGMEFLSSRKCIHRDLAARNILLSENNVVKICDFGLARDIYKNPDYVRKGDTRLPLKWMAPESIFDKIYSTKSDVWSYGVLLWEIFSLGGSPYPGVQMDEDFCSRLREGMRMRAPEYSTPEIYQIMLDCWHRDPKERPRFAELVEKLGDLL
The experiment in a line: GST-fused kinase domain assay, Flt-1. Type of data set: biochemical. As to conditions: Flt-1, text. How it is done: as §2

In another data set the target is T5, c-Met (Homo sapiens, UniProt P08581).
T5 construct: GST-fused kinase domains of Kdr, Flt-1, Flk, Tek, c-Met, and c-Kit were expressed in baculovirus; GST; made in house
The experiment in a line: GST-fused kinase domain assay, c-Met. Type of data set: biochemical. How it is done: as §2

For another data set, the system named is VEGF. The experiment in a line: In vitro expression of VEGF by L3.6pl cells (ELISA). Type of data set: cell-based, human. To be noted: 72 h, 1 μM PKI166 or 10 nM gemcitabine, control 1400 pg/ml. As for the experimental part: In vitro Expression of VEGF and IL-8. L3.6pl cells (2000 cells/38 mm^2 well) were plated into 96-well plates in 200 μl supplemented DMEM containing 5% FBS for 24 h, and then treated with 0.05, 0.5, or 1 μM PKI166. Supplemented DMEM (5% FBS) and human IgG (10 μg/ml) served as controls. Seventy-two hours later, the culture supernatants were collected, and the level of VEGF and IL-8 proteins (corrected for cell number) were determined by Quantikine ELISA kits.
(In an ELISA, binding on a coated surface is turned into a signal by an enzyme label.)

For data set [1] the following is noted: mice, cited from earlier work.

Molecules are shown by their SMILES. Like-named read-outs stand apart in the source and are kept apart here.

T1 sequence (P00533 669-1210 limits assumed): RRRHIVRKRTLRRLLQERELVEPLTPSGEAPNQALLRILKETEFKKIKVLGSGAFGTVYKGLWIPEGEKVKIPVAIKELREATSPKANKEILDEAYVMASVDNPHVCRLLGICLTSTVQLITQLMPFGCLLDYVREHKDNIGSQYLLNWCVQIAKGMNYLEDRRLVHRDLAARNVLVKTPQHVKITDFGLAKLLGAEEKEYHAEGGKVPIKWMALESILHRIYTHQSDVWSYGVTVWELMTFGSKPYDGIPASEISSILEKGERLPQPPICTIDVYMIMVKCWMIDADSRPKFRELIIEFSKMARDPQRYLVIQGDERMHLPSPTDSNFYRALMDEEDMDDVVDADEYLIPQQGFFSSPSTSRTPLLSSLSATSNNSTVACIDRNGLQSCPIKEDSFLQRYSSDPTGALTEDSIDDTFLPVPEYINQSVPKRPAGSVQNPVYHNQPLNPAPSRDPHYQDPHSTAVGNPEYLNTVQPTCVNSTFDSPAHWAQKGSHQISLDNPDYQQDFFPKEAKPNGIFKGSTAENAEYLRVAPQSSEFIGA
Sequence of c-Src (P12931 whole entry, species assumed, the tested form may be a part): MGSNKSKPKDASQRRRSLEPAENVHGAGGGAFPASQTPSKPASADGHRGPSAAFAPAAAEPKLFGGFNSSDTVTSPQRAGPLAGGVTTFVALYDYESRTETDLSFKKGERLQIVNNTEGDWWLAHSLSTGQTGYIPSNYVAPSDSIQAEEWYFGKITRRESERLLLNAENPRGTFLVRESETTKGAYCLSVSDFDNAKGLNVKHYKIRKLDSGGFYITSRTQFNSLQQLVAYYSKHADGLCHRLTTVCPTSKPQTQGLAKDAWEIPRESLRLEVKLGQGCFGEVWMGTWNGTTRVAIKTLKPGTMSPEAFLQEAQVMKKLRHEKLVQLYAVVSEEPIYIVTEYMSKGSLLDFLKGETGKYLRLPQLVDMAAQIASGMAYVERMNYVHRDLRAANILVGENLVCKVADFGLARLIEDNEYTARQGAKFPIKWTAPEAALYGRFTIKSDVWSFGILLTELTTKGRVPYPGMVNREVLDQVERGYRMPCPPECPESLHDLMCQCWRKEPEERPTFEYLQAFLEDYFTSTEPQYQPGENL
T3 sequence (P35968 834-1162 limits assumed): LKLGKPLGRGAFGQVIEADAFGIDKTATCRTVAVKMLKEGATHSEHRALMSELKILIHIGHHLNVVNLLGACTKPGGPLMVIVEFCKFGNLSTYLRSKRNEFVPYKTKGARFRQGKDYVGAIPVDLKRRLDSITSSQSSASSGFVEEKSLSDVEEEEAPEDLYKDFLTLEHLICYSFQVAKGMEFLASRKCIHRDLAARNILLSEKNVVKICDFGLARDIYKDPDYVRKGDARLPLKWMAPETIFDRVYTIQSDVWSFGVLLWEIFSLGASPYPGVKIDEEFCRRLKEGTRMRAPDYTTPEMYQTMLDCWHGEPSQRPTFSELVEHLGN
T5 sequence (P08581 1078-1345 limits assumed): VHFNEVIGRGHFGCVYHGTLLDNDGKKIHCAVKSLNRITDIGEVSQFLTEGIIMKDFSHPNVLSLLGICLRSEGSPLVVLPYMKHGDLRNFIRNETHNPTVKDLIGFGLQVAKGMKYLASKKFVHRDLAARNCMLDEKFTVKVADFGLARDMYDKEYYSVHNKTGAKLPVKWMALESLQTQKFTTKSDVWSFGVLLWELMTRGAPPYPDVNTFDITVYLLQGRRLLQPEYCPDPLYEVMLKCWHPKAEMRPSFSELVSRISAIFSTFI

Turning to `C[C@@H](Nc1ncnc2[nH]c(-c3ccc(O)cc3)cc12)c1ccccc1` [PKI166, 4-(R)-phenethylamino-6-(hydroxyl) phenyl-7H-pyrrolo[2.3-d]-pyrimidine], the “mode of inhibition of EGF-R kinase” value on EGF-R-ICD (enzyme kinetic studies) is “ATP-competitive inhibition”. In addition, the IC50 stood at 0.7 nM on EGF-R-ICD (intracellular domain (ICD) of the EGF-R kinase); 103 nM on c-Src; 130 nM on c-Src (text); 28 nM on c-Abl; 327 nM against KDR; 962 nM on Flt-1. The IC50 against c-Met was greater than 1000 nM. The “selectivity factor for inhibition of the EGF-R ICD” value on EGF-R-ICD (versus other tyrosine kinases (Traxler et al. 1999)) is greater than 40. In addition, the selectivity ratio at EGF-R-ICD (with respect to inhibition of serine/threonine kinases PKC-α and Cdc2/cyclin B) was greater than 3000. Moreover, the “VEGF in culture supernatant” value with VEGF was 180 pg/mL. In addition, the “Sustained levels of unchanged compound in plasma, time after oral administration” value in data set [1] (plasma, oral) is recorded as “up to 8 h”. Further, the Cmax in data set [1] (single oral administration of 100 mg/kg, plasma, read-out: C max in plasma) is 32.8 µM; in data set [1] (single oral administration of 100 mg/kg, subcutaneous A431 tumors, read-out: C max in subcutaneous A431 tumors), 53 µM. The t max in data set [1] (single oral administration of 100 mg/kg) was 1 h.
